This data set can be described thus: relative stability of the polymorphic forms (crystallisation and slurry interconversion experiments). The class given is physicochemical. The conditions noted are these: stated as 'believed to be'. The protocol: Thus in general, without wishing to be bound by theory, slower processes will favor the production of Form B. For example, slow addition of solvent, slow cooling rate and/or mixing will tend to favor the production of Form B, whereas fast solvent addition, fast cooling and/or minimal mixing time will favor production of Form A.
A mixture of 3-amino-1-propanesulfonic acid form A (0.7654 g) and form B (0.7880 g) were added to ethanol (5 mL) and water (1.25 mL) in a flask. The slurry was placed in a water bath at 5° C. and stirred for four hours. Solids were collected by vacuum filtration to afford form B.

Experimental findings from US20070049638A1, “Polymorphic forms of 3-amino-1-propanesulfonic acid” (Neurochem (International) Limited, priority 2005, published 2007) are described below.

On to `NCCCS(=O)(=O)O` [Form A, 3-amino-1-propanesulfonic acid], for which the “kinetic preference of the polymorphic form” value (generated from fast timescale experiments) is “kinetically favored form”.
Regarding `NCCCS(=O)(=O)O` [Form B, 3-amino-1-propanesulfonic acid], the “thermodynamic stability of the polymorphic form” value (between about 5 and about 60° C.) is “more thermodynamically stable form”.
